Consider 2 compounds from patent publication US20230181475A1, “COMPOSITION COMPRISING METHYLFOLATE” (ALFASIGMA S.P.A., priority 2020, published 2023).

The test system of one assay is BDNF protein. Briefly: Western blot of BDNF protein in frontal cortex of CUS mice. Format: in vivo. The conditions noted are these: 14 days i.p. treatment, MTHF 3 mg/kg, LAC 30 mg/kg. On the procedure: Mice after 4 weeks of CUS and 2 week of pharmacological treatments, as described before, at the end of Week 5 the animals were sacrificed and the level of BDNF protein were measured in Frontal Cortex by western blot.
Drug treatment started at the 3rd week of CUS and it was maintained for 2 weeks, the study ending at Week 5 for the start of the experiment. Behavioural tests were performed 3 days after the beginning of treatments, while post-mortem protein studies in the mouse brain were performed after 14 days of treatment, at the end of Week 5.
Mice were treated as described in Example 19. After 4 weeks of CUS and 2 week of pharmacological treatments (as described in Example 19), at the end of Week 5 the animals were sacrificed and the level of BDNF protein were measured in Hippocampus and Frontal Cortex by western blot. Table 28 reports the protein levels of BDNF, a neuronal trophic factor related to chronic stress and depression, in the Frontal Cortex of mice.
The antibody recognizes the mature form of the 17 KDa BDNF.
In general terms: A western blot detects proteins with antibodies after separation by electrophoresis.

Assay [1] deals with C57Black/6J mice subjected to CUS. Briefly: Forced swimming test (FST) in mice subjected to Chronic Unpredictable Stress (CUS). Format: in vivo. The conditions noted are these: MTHF 3 mg/kg, LAC 30 mg/kg; for effect on immobility time in FST / effects of chronic stress (in words): 3 days of treatment; for Total Immobility Time (sec) + SD: i.p. 3 days of treatment, last 4 minutes of 6 min test, n=8. On the procedure:
The animal study was performed in a validate experimental model subject to Chronic Unpredictable Stress (CUS), as described in J H Cryan et al. in J. Neubiorev. 2005, 03, 009, for a period of 4 weeks to induce the depressive phenotype CUS. The CUS allows the depressive phenotype responsive to standard antidepressant treatments to be reproduced in vivo in mammals. The animals were divided in five groups and the group which received the combination of MTHF with LAC was compared with the groups which received MTHF and LAC separately. All the groups were compared with the group which received saline solution and the group which not submitted to CUS.
The mice were subjected to CUS for 4 weeks, and the drug treatment started at the 3rd week of CUS and maintained until the end of the 4-week treatment.
To assess the antidepressant effects of the selected product LAC and MTHF the animals were submitted to the Forced swimming test (“FST”) as described in J H Cryan et al. in J. Neubiorev. 2005, 03, 009 and measured the Total Immobility Time expressed in the […] of animals.
Forty, 7-week-old male C57Black/6J, mice were subjected to CUS (“Chronic Unpredictable Mild Stress”), a validate model that allow the depressive phenotype as described in J H Cryan et al. in J. Neubiorev. 2005, 03, 009.
The mice were subjected to CUS for 4 weeks, during which different types of stress were applied to the animals twice-a-day in a random and unpredictable manner: one session during the day lasting 1-3 hours, and one session during the night (lasting 12 hours), with at least 6 hours of interval between the two sessions. […]
To assess the antidepressant behavioural effects of the selected product LAC and MEF the animals were submitted to the Forced swimming test (“FST”) as described in J H Cryan et al. in J. Neubiorev. 2005, 03, 009 and the Total Immobility Time measured in the 5 group of animals.
During the test the mice were placed individually for 6 minutes in transparent plexiglass cylinders (25 cm high and 22 cm in diameter) filled with warm water (28° C.), in sufficient quantity to prevent the mouse from touching the bottom of the cylinder with hind legs. The animal was videotaped, and then the immobility time (expressed in seconds) was measured during the last 4 minutes of the test.

For the compound `CC(=O)O[C@H](CC(=O)[O-])C[N+](C)(C)C` [LAC, Acetyl L-carnitine], the “Western blot BDNF in frontal cortex, Optical Density bands + SD” value in the assay on BDNF protein is reported as 113.29 + 28.95. In assay [1], the “effect on immobility time in FST / effects of chronic stress (in words)” value is given as “not antagonised” and the “Total Immobility Time (sec) + SD” value is reported as 245.75 + 30.34 sec.
Regarding “calcium L-5-methyl-(6S)-tetrahydrofolate [MTHF]”, in the assay with BDNF protein, the “Western blot BDNF in frontal cortex, Optical Density bands + SD” value is recorded as 138.46 + 18.26. In assay [1], the “effect on immobility time in FST / effects of chronic stress (in words)” value is on record as “not antagonised” and the “Total Immobility Time (sec) + SD” value is listed as 230 + 14.20 sec.
